In brackets after ≈: the same amount, converted by molar mass.
Experiment: Solubility of flibanserin in aqueous media
Type: physicochemical
Details: aqueous buffer; in phosphate buffer at pH 5.0
Excerpt: This marginal solubility at higher pH-values of flibanserin makes it difficult to develop extended release dosage forms or in some case even immediate release dosage forms for the following reasons. There is a natural pH gradient from the acidity of the stomach where the pH of physiological fluids are typically around 1-2, through the weakly acidic duodenum to the virtually neutral environment of the small intestine where the pH is in the range of 5-8. There are however cases of non-acidic stomach conditions due to either low production of hydrochloric acid caused by the physiology of the patients (this percentage increases form about 2-10% in young patients to about 10 to 40% in elderly patients) or by coadministration of antacids such as basic agents, H2-blockers or proton pump inhibitors. In those cases dissolution of even immediate release formulations (IRE) may be incomplete in the stomach and absorption might be incomplete or at least delayed.
Within the meaning of the present invention, supersaturation occurs if the active ingredient remains in dissolved status at concentrations far above its saturation solubility in the same aqueous system. […]

solubility: 10 µg/mL (≈ 25.6 µM)
Structure (SMILES): O=c1[nH]c2ccccc2n1CCN1CCN(c2cccc(C(F)(F)F)c2)CC1 [Flibanserin, 1,3-dihydro-1-[2-[4-[3-(trifluoromethyl)phenyl]-1-piperazinyl]ethyl]-2H-benzimidazole-2-one]

From patent publication US20150224058A1, “FORMULATIONS OF FLIBANSERIN” (Sprout Pharmaceuticals Inc., priority 2008, published 2015)
